Data reported in US10131652B2, “Pyrimidinyloxy benzene derivatives as herbicides” (E. I. DU PONT DE NEMOURS AND COMPANY, priority 2014, dated 2018).

Tests used:
Test in all cases: Test D pre-/postemergence plant response
Format in all cases: in vivo
[1] = tested on: ragweed (common ragweed, Ambrosia elatior)
Text: (§1) Seeds of plant species selected from blackgrass (Alopecurus myosuroides), Italian ryegrass (Lolium multiflorum), winter wheat (Triticum aestivum), galium (catchweed bedstraw, Galium aparine), corn (Zea mays), large (Lg) crabgrass (Digitaria sanguinalis), giant foxtail (Setaria faberii), johnsongrass (Sorghum halepense), lambsquarters (Chenopodium album), morningglory (Ipomoea coccinea), yellow nutsedge (Cyperus esculentus), pigweed (Amaranthus retroflexus), ragweed (common ragweed, Ambrosia elatior), soybean (Glycine max), bamyardgrass (Echinochloa crus-galli), oilseed rape (Brassica napus), waterhemp (common waterhemp, Amaranthus rudis), and velvetleaf (Abutilon theophrasti) were planted into a blend of loam soil and sand and treated preemergence with test chemicals formulated in a non-phytotoxic solvent mixture which included a surfactant. At the same time, plants selected from these crop and weed species and also kochia (Kochia scoparia), wild oat (Avena fatua), and chickweed (common chickweed, Stellaria media) were planted in pots containing Redi-Earth® planting medium (Scotts Company, 14111 Scottslawn Road, Marysville, Ohio 43041) comprising spaghnum peat moss, vermiculite, wetting agent and starter nutrients and treated with postemergence applications of test chemicals formulated in the same manner. Plants ranged in height from 2 to 18 cm (1- to 4-leaf stage) for postemergence treatments. Treated plants and controls were maintained in a greenhouse for 13 to 15 days, after which time all species were compared to controls and visually evaluated. Plant response ratings, summarized in Table D, are based on a scale of 0 to 100 where 0 is no effect and 100 is complete control. A dash (-) response means no test result.

[2] = tested on: velvetleaf (Abutilon theophrasti)
Text: as §1

[3] = tested on: Italian ryegrass (Lolium multiflorum)
Text: as §1

[4] = tested on: oilseed rape (Brassica napus)
Text: as §1

[5] = tested on: lambsquarters (Chenopodium album)
Text: as §1

[6] = tested on: johnsongrass (Sorghum halepense)
Text: as §1

[7] = tested on: galium (catchweed bedstraw, Galium aparine)
Text: as §1

[8] = tested on: pigweed (Amaranthus retroflexus)
Text: as §1

[9] = tested on: large (Lg) crabgrass (Digitaria sanguinalis)
Text: as §1

[10] = tested on: yellow nutsedge (Cyperus esculentus)
Text: as §1

soybean (Glycine max) = tested on: soybean (Glycine max)
Text: as §1

[11] = tested on: giant foxtail (Setaria faberii)
Text: as §1

corn (Zea mays) = tested on: corn (Zea mays)
Text: as §1

[12] = tested on: blackgrass (Alopecurus myosuroides)
Text: as §1

[13] = tested on: morningglory (Ipomoea coccinea)
Text: as §1

[14] = tested on: waterhemp (common waterhemp, Amaranthus rudis)
Text: as §1

[15] = tested on: winter wheat (Triticum aestivum)
Text: as §1

[16] = tested on: barnyardgrass (Echinochloa crus-galli)
Text: as §1

[17] = Postemergence, 16 g ai/ha, scale 0 to 100 (0 no effect, 100 complete control)
[18] = Postemergence, 31 g ai/ha, scale 0 to 100 (0 no effect, 100 complete control)
[19] = Postemergence, 62 g ai/ha, scale 0 to 100, 0 no effect, 100 complete control
[20] = Postemergence, 125 g ai/ha, scale 0 to 100, 0 no effect, 100 complete control
[21] = Preemergence, 16 g ai/ha, scale 0 to 100 (0 no effect, 100 complete control)
[22] = Preemergence, 31 g ai/ha, scale 0 to 100 (0 no effect, 100 complete control)
[23] = Preemergence, 62 g ai/ha, scale 0 to 100 (0 no effect, 100 complete control)

Cc1cc(-c2ccccc2Oc2ncc(Cl)cn2)on1 [Compound 58]
Ragweed plant response rating [1, 17]: 20 | Ragweed plant response rating [1, 18]: 45 | Plant response rating, Ragweed [1, 19]: 65 | Plant response rating, Ragweed [1, 20]: 60 | Plant response rating (scale 0 to 100), Ragweed ([1]; Preemergence, 125 g ai/ha): 100 | Plant response rating, Ragweed [1, 21]: 100 | Plant response rating, Ragweed [1, 22]: 35 | Plant response rating, Ragweed [1, 23]: 75 | Velvetleaf plant response rating [2, 17]: 60 | Velvetleaf plant response rating [2, 18]: 35 | Plant response rating, Velvetleaf [2, 19]: 60 | Plant response rating, Velvetleaf [2, 20]: 85 | Plant response rating (scale 0 to 100), Velvetleaf ([2]; Preemergence, 125 g ai/ha): 100 | Plant response rating, Velvetleaf [2, 21]: 85 | Plant response rating, Velvetleaf [2, 22]: 100 | Plant response rating, Velvetleaf [2, 23]: 100 | Ryegrass, Italian plant response rating [3, 17]: 0 | Ryegrass, Italian plant response rating [3, 18]: 0 | Plant response rating, Ryegrass, Italian [3, 19]: 0 | Plant response rating, Ryegrass, Italian [3, 20]: 0 | Plant response rating (scale 0 to 100), Ryegrass, Italian ([3]; Preemergence, 125 g ai/ha): 5 | Plant response rating, Ryegrass, Italian [3, 21]: 0 | Plant response rating, Ryegrass, Italian [3, 22]: 0 | Plant response rating, Ryegrass, Italian [3, 23]: 0 | Oilseed Rape plant response rating [4, 17]: 5 | Oilseed Rape plant response rating [4, 18]: 10 | Plant response rating, Oilseed Rape [4, 19]: 60 | Plant response rating, Oilseed Rape [4, 20]: 75 | Plant response rating (scale 0 to 100), Oilseed Rape ([4]; Preemergence, 125 g ai/ha): 100 | Plant response rating, Oilseed Rape [4, 21]: 60 | Plant response rating, Oilseed Rape [4, 22]: 98 | Plant response rating, Oilseed Rape [4, 23]: 100 | Lambsquarters plant response rating [5, 17]: 10 | Lambsquarters plant response rating [5, 18]: 75 | Plant response rating, Lambsquarters [5, 19]: 60 | Plant response rating, Lambsquarters [5, 20]: 90 | Plant response rating (scale 0 to 100), Lambsquarters ([5]; Preemergence, 125 g ai/ha): 100 | Plant response rating, Lambsquarters [5, 21]: 25 | Plant response rating, Lambsquarters [5, 22]: 100 | Plant response rating, Lambsquarters [5, 23]: 100 | Johnsongrass plant response rating [6, 17]: 0 | Johnsongrass plant response rating [6, 18]: 0 | Plant response rating, Johnsongrass [6, 19]: 0 | Plant response rating, Johnsongrass [6, 20]: 5 | Plant response rating (scale 0 to 100), Johnsongrass ([6]; Preemergence, 125 g ai/ha): 50 | Plant response rating, Johnsongrass [6, 21]: 10 | Plant response rating, Johnsongrass [6, 22]: 10 | Plant response rating, Johnsongrass [6, 23]: 20 | Galium plant response rating [7, 17]: 40 | Galium plant response rating [7, 18]: 45 | Plant response rating, Galium [7, 19]: 60 | Plant response rating, Galium [7, 20]: 55 | Plant response rating (scale 0 to 100), Galium ([7]; Preemergence, 125 g ai/ha): 100 | Plant response rating, Galium [7, 21]: 0 | Plant response rating, Galium [7, 22]: 98 | Plant response rating, Galium [7, 23]: 100 | Pigweed plant response rating [8, 17]: 20 | Pigweed plant response rating [8, 18]: 25 | Plant response rating, Pigweed [8, 19]: 40 | Plant response rating, Pigweed [8, 20]: 75 | Plant response rating (scale 0 to 100), Pigweed ([8]; Preemergence, 125 g ai/ha): 100 | Plant response rating, Pigweed [8, 21]: 50 | Plant response rating, Pigweed [8, 22]: 100 | Plant response rating, Pigweed [8, 23]: 100 | Crabgrass, Large plant response rating [9, 17]: 5 | Crabgrass, Large plant response rating [9, 18]: 5 | Plant response rating, Crabgrass, Large [9, 19]: 5 | Plant response rating, Crabgrass, Large [9, 20]: 5 | Plant response rating (scale 0 to 100), Crabgrass, Large ([9]; Preemergence, 125 g ai/ha): 100 | Plant response rating, Crabgrass, Large [9, 21]: 25 | Plant response rating, Crabgrass, Large [9, 22]: 90 | Plant response rating, Crabgrass, Large [9, 23]: 100 | Nutsedge, Yellow plant response rating [10, 17]: 0 | Nutsedge, Yellow plant response rating [10, 18]: 0 | Plant response rating, Nutsedge, Yellow [10, 19]: 0 | Plant response rating, Nutsedge, Yellow [10, 20]: 0 | Plant response rating (scale 0 to 100), Nutsedge, Yellow ([10]; Preemergence, 125 g ai/ha): 15 | Plant response rating, Nutsedge, Yellow [10, 21]: 0 | Plant response rating, Nutsedge, Yellow [10, 22]: 0 | Plant response rating, Nutsedge, Yellow [10, 23]: 0 | Soybean plant response rating (soybean (Glycine max); [17]): 55 | Soybean plant response rating (soybean (Glycine max); [18]): 40 | Plant response rating, Soybean (soybean (Glycine max); [19]): 60 | Plant response rating, Soybean (soybean (Glycine max); [20]): 75 | Plant response rating (scale 0 to 100), Soybean (soybean (Glycine max); Preemergence, 125 g ai/ha): 85 | Plant response rating, Soybean (soybean (Glycine max); [21]): 30 | Plant response rating, Soybean (soybean (Glycine max); [22]): 35 | Plant response rating, Soybean (soybean (Glycine max); [23]): 80 | Foxtail, Giant plant response rating [11, 17]: 0 | Foxtail, Giant plant response rating [11, 18]: 0 | Plant response rating, Foxtail, Giant [11, 19]: 15 | Plant response rating, Foxtail, Giant [11, 20]: 30 | Plant response rating (scale 0 to 100), Foxtail, Giant ([11]; Preemergence, 125 g ai/ha): 98 | Plant response rating, Foxtail, Giant [11, 21]: 0 | Plant response rating, Foxtail, Giant [11, 22]: 15 | Plant response rating, Foxtail, Giant [11, 23]: 85 | Corn plant response rating (corn (Zea mays); [17]): 0 | Corn plant response rating (corn (Zea mays); [18]): 0 | Plant response rating, Corn (corn (Zea mays); [19]): 5 | Plant response rating, Corn (corn (Zea mays); [20]): 5 | Plant response rating (scale 0 to 100), Corn (corn (Zea mays); Preemergence, 125 g ai/ha): 20 | Plant response rating, Corn (corn (Zea mays); [21]): 5 | Plant response rating, Corn (corn (Zea mays); [22]): 20 | Plant response rating, Corn (corn (Zea mays); [23]): 10 | Blackgrass plant response rating [12, 17]: 0 | Blackgrass plant response rating [12, 18]: 0 | Plant response rating, Blackgrass [12, 19]: 0 | Plant response rating, Blackgrass [12, 20]: 5 | Plant response rating (scale 0 to 100), Blackgrass ([12]; Preemergence, 125 g ai/ha): 95 | Plant response rating, Blackgrass [12, 21]: 0 | Plant response rating, Blackgrass [12, 22]: 5 | Plant response rating, Blackgrass [12, 23]: 80 | Morningglory plant response rating [13, 17]: 20 | Morningglory plant response rating [13, 18]: 45 | Plant response rating, Morningglory [13, 19]: 45 | Plant response rating, Morningglory [13, 20]: 65 | Plant response rating (scale 0 to 100), Morningglory ([13]; Preemergence, 125 g ai/ha): 45 | Plant response rating, Morningglory [13, 21]: 10 | Plant response rating, Morningglory [13, 22]: 25 | Plant response rating, Morningglory [13, 23]: 0 | Waterhemp plant response rating [14, 17]: 35 | Waterhemp plant response rating [14, 18]: 40 | Plant response rating, Waterhemp [14, 19]: 55 | Plant response rating, Waterhemp [14, 20]: 75 | Plant response rating (scale 0 to 100), Waterhemp ([14]; Preemergence, 125 g ai/ha): 100 | Plant response rating, Waterhemp [14, 21]: 100 | Plant response rating, Waterhemp [14, 22]: 100 | Plant response rating, Waterhemp [14, 23]: 100 | Wheat plant response rating [15, 17]: 0 | Wheat plant response rating [15, 18]: 5 | Plant response rating, Wheat [15, 19]: 10 | Plant response rating, Wheat [15, 20]: 10 | Plant response rating (scale 0 to 100), Wheat ([15]; Preemergence, 125 g ai/ha): 0 | Plant response rating, Wheat [15, 21]: 0 | Plant response rating, Wheat [15, 22]: 0 | Plant response rating, Wheat [15, 23]: 0 | Barnyardgrass plant response rating [16, 17]: 0 | Barnyardgrass plant response rating [16, 18]: 0 | Plant response rating, Barnyardgrass [16, 19]: 0 | Plant response rating, Barnyardgrass [16, 20]: 5 | Plant response rating (scale 0 to 100), Barnyardgrass ([16]; Preemergence, 62 g ai/ha): 65 | Plant response rating (scale 0 to 100), Barnyardgrass ([16]; Preemergence, 125 g ai/ha): 80 | Plant response rating, Barnyardgrass [16, 21]: 5 | Plant response rating, Barnyardgrass [16, 22]: 5
